From patent publication US4431807A, “4-Methyl-5-(unsubstituted and substituted phenoxy)-6-methoxy-8-(aminoalkylamino)quinolines” (priority 1981, dated 1984)

Legend:
[1] = Acute oral toxicity, rats
P. cynomolgi [2] = assay: Combination drug therapy including chloroquine as suppressive adjuvant, radical curative studies; type: in vivo, P. cynomolgi in rhesus monkeys; settings: for Activity at 3.5 mg/kg (×1): primaquine with chloroquine, compound 1 without chloroquine; for Fully curative dose level: single dose, with chloroquine
Plasmodium berghei = assay: Blood schizonticidal (suppressive) test, Rane mouse test, P. berghei; type: in vivo, Plasmodium berghei KBG 173 in ICR/HA Swiss mice
Excerpt: Blood Schizonticidal Test (Mouse), University of Miami, Rane (Suppressive)
This system is based on comparisons of responses to test compounds by Plasmodium berghei KBG 173 malaria in mice as expressed in mean survival times and the mean survival times of untreated controls. Thus, compounds noted as active produce increases in the survival times of the treated animals that are significant when compared with the survival times of untreated controls. Since an established disease is less sensitive to treatment than a disease in the early stages of development, treatment is withheld until the parasitemia is relatively high in order to insure a more reliable assay of activity and the selection of appropriate compounds for intensive preclinical studies.
Utilizing young ICR/HA Swiss mice and a standard inoculum of Plasmodium berghei KBG 173, it is possible to produce a uniform disease fatal to 100% of untreated animals within 6 to 8 days with a mean survival time of 6.2 days. Test animals weigh from 18 to 22 grams but weight variations in any given experimental or control group are confined to 2-3 grams. All animals in any given test are approximately of the same age. Animals on test are housed in metal-topped plastic cages, given a standard laboratory diet and water ad libitum.
Test animals receive an intraperitoneal injection of 0.5 ml of 1:100 dilution of heparinized heart's blood with a minimum of 90% parasitized cells (4×10^7 cells), drawn from donor mice infected one week earlier with Plasmodium berghei. The donor stran is maintained by weekly passages in separate groups of mice inoculated with a 0.5 ml of 1:500 dilution of heparinized heart's blood.
Test compounds are administered after dissolution or suspension in peanut oil. A single dose is given subcutaneously 72 hours after the mice are infected with Plasmodium berghei. At this time a 10-15 percent parasitemia has developed; the disease is well established but has not produced sufficient debility to alter the response of the host to toxic effects of the drug on test. Since treatment is withheld for three days to permit the infection to become well established and death occurs in untreated controls within 6-8 days, it is believed that this system presents a candidate compound with the maximum challenge. In order to check factors such as changes in the infectivity of Plasmodium berghei or in the susceptibility of the host or to detect technical errors, a group of infected animals treated with pyrimethamine at dose levels producing definite increases in survival time is included as a positive control in every experiment.
In each experiment test compounds are administered in graded doses. […] However, if an active drug is toxic for the host, its toxicity may become a limiting factor; continued increases in dose levels also increase the toxic effects and may result in the diminution of survival times. Deaths prior to the sixth day, when untreated controls begin to die, are regarded as non-parasitic and become the basis for toxicity evaluations. Treated animals are kept under observation for 60 days. Survivors at the end of this period of time are considered as cured.
An increase of 100% in mean survival time is considered the minimum effective response for a candidate compound. In calculating mean survival time, toxic deaths and 60 day survivors are not included.
The antimalarial activity data acquired by the two test procedures described above are listed in Tables 2 and 3 for the compounds of this invention. In Table 4, the most promising compound of the series, compound 1, is compared directly with primaquine together with some additional test data for compound 1 compared to primaquine. In all the work reported herein primaquine is used in the form of the diphosphate salt. The test data are expressed in the form of the number of cures at a given dose level. […]

[3] = Acute oral toxicity, guinea pigs
P. cynomolgi [4] = assay: SEATO suppressive test, P. cynomolgi, rhesus monkey (parasitized blood inoculation, no chloroquine); type: in vivo, P. cynomolgi in rhesus monkey
Method: Equally significant is the suppressive activity comparison (Part A-2) in the Rhesus monkey. This test differs from the SEATO radical curative test primarily in that parasitemia is induced by intravenous inoculation of parasitized blood (rather than sporozoites) and that chloroquine is not co-administered with the test drug. […] On the other hand, compound 1 is curative at doses down to 1.0 mg/kg/day.

[5] = 0.875 mg/kg base × 1, oral, without chloroquine
[6] = 1.75 mg/kg base × 1, oral, plus chloroquine
[7] = 3.5 mg/kg base × 1, oral, without chloroquine
[8] = 14 mg/kg base × 1, oral, without chloroquine
[9] = 160 mg/kg × 1, s.c., five mice, Table III
[10] = 320 mg/kg × 1, s.c., five mice, Table III
[11] = 640 mg/kg × 1, s.c., five mice, Table III
[12] = 3.5 mg/kg base × 1, oral, plus chloroquine
[13] = 7 mg/kg base × 1, oral, plus chloroquine

## COc1cc(NC(C)CCCN)c2nccc(C)c2c1Oc1cccc(C(F)(F)F)c1.O=C(O)CCC(=O)O (stereo not shown) [Compound 1, 8-(4-Amino-1-methylbutylamino)-6-methoxy-4-methyl-5-(3-trifluoromethylphenoxy)quinoline Succinate]
[1]; rats, female
  LD50 ratio Compound 1/Primaquine: 2.76
[1]; rats, male
  LD50 ratio Compound 1/Primaquine: 1.46
P. cynomolgi [2]; 0.4375 mg/kg base × 1, oral, plus chloroquine
  Relapse: 4R
P. cynomolgi [2]; 0.4375 mg/kg base × 1, oral, without chloroquine
  Relapse: 4R
P. cynomolgi [2]; 0.875 mg/kg base × 1, oral, plus chloroquine
  Cure: 4C
P. cynomolgi [2]; [5]
  Relapse: 1R
  Suppressive failure: 3SF
P. cynomolgi [2]; [6]
  Cure: 2C
P. cynomolgi [2]; 1.75 mg/kg base × 1, oral, without chloroquine
  Suppressive failure: 4SF
P. cynomolgi [2]; [7]
  Cure: 1C
  Suppressive failure: 1SF
P. cynomolgi [2]; 7 mg/kg base × 1, oral, without chloroquine
  Cure: 2C
P. cynomolgi [2]; [8]
  Cure: 1C
  Suppressive failure: 1SF
P. cynomolgi [2]
  Activity at 3.5 mg/kg (×1): equally active
  Fully curative dose level: 0.875 mg/kg
P. cynomolgi [2]; with chloroquine co-administration
  Molar Primaquine Index: 19
Plasmodium berghei; 5 mg/kg salt, s.c., Table IV A-1
  Extension of survival: 7 days
Plasmodium berghei; 5 mg/kg × 1, s.c., five mice, Table III
  Cures (60 days survival): 1C
Plasmodium berghei; 10 mg/kg × 1, s.c., five mice, Table III
  Cures (60 days survival): 3C
Plasmodium berghei; 20 mg/kg × 1, s.c., five mice, Table III
  Cures (60 days survival): 5C
Plasmodium berghei; 40 mg/kg × 1, s.c., five mice, Table III
  Cures (60 days survival): 5C
Plasmodium berghei; 80 mg/kg × 1, s.c., five mice, Table III
  Cures (60 days survival): 5C
Plasmodium berghei; [9]
  Cures (60 days survival): 5C
Plasmodium berghei; [10]
  Cures (60 days survival): 5C
Plasmodium berghei; 640 mg/kg salt, s.c., Table IV A-1
  Toxic deaths: 4T
Plasmodium berghei; [11]
  Cures (60 days survival): 1C
  Toxic: 4T
Plasmodium berghei; Plasmodium berghei, sc, single dose, read-out: Curative dose, suppressive test
  minimal effective dose: 10 mg/kg
[3]; guinea pigs, male
  LD50 ratio Compound 1/Primaquine: 3.22
P. cynomolgi [4]; Plasmodium cynomolgi, in Macaca mulatta, po, curative at doses down to, read-out: Lowest curative dose, suppressive test in rhesus
  minimal effective dose: 1 mg/kg/day

## COc1cc(NC(C)CCCN)c2ncccc2c1 (stereo not shown) [Primaquine Diphosphate, 8-((4-amino-1-methylbutyl)amino)-6-methoxy-quinoline, reference compound]
[1]; rat, in vivo, po
  LD50: 224 mg/kg
[1]; rats, male
  Acute Oral LD50: 177 mg/kg
P. cynomolgi [2]; [6]
  Relapse: 2R
P. cynomolgi [2]; [12]
  Cure: 2C
  Relapse: 1R
  Suppressive failure: 1SF
P. cynomolgi [2]; [13]
  Cure: 2C
  Relapse: 1R
  Suppressive failure: 1SF
P. cynomolgi [2]; 14 mg/kg base × 1, oral, plus chloroquine
  Cure: 2C
P. cynomolgi [2]
  Activity at 3.5 mg/kg (×1): effective although a relapse was observed in one of the four animals
  Fully curative dose level: 14 mg/kg
Plasmodium berghei; 80 mg/kg × 1, s.c., Table III
  Extension of survival relative to controls: 9 days
Plasmodium berghei; 160 mg/kg salt, s.c., Table IV A-1
  Extension of survival: 9 days
Plasmodium berghei; 160 mg/kg × 1, s.c., Table III
  Extension of survival relative to controls: 9 days
Plasmodium berghei; [9]
  Suppressive activity (active/inactive): A (Active, 7 Days or more estension of survival relative to controls.)
  Toxic: 2T
Plasmodium berghei; [10]
  Toxic: 5T
Plasmodium berghei; [11]
  Toxic: 5T
Plasmodium berghei; all doses, s.c., Table IV A-1
  Cures, Rane mouse test: No Cures
Plasmodium berghei; any dose level
  Toxicity and curative activity, Rane mouse test: toxic and non-curative at any dose level
[3]; guinea pig, in vivo, po
  LD50: 54 mg/kg
P. cynomolgi [4]; all doses, oral, × 7 days
  Cures, suppressive test in rhesus: No Cures
P. cynomolgi [4]; in words
  Suppressive activity in the rhesus: failed to clear the blood schizonts completely
